Data as given in patent publication US12679878B2, “CRF2 receptor agonists and their use in therapy” (SANOFI, priority 2020, dated 2026).
Where two headings read alike, the source gives them in different places. Starred links: 1 amine or outer side, 2 acyl side, 3 side chain; linkers in the order of their positions; H or OH if unused. Non-standard residues stand in square brackets, D forms with d. Residues, ends and D or L forms follow the SMILES beside them. Groups on a side chain read outwards from the residue. *: point of attachment. C16 diacid = O=C(O)CCCCCCCCCCCCCCC(=O)*; γGlu = O=C(O)[C@H](CCC(=O)[*:2])N[*:1]; Palmitoyl = CCCCCCCCCCCCCCCC(=O)*; AEEA = NCCOCCOCC(=O)O; Aib = CC(C)(N)C(=O)O

Assays:
[1] = target: T1, CRF1R receptor (Homo sapiens, UniProt P34998); assay: cAMP activity at anti-target CRF1R, CHO-K1 cell line clone 2 (Example 19.10); type: cell-based; conditions: for Emax: 100% = Sauvagine at 100 nM; for CRF1/CRF2 ratio: ratio of CRF1 EC50 to CRF2 EC50
T1 construct: host or cells: CHO-K1 clone 2
T1 sequence (P34998 24-415): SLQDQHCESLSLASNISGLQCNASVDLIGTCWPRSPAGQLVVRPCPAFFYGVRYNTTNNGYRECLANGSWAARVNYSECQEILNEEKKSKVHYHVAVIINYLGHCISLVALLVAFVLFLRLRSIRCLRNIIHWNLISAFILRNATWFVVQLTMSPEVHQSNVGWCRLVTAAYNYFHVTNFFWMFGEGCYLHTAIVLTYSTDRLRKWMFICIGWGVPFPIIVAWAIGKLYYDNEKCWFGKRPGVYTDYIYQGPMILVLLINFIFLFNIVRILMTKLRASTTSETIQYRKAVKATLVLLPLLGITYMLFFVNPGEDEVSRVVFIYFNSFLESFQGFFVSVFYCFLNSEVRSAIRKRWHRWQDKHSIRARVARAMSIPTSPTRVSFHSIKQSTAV
How it was run: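 The cAMP read-out used the same protocol as the previous assay, except that Sauvagine at 100 nM set the 100% activation control. Cells were CHO-K1 clone 2 overexpressing CRF1R, cultured in F12 medium with 10% FBS and G418 and stored frozen until use.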

[2] = target: T2, human CRF2α receptor (Homo sapiens, UniProt Q13324); assay: cAMP agonism at human CRF2α receptor in TeloHEAC cells, FA modified peptides (Example 19.9); type: cell-based; conditions: 0% HSA, relative to urocortin 2
T2 construct: expressed in transfected cells; host or cells: TeloHEAC
T2 sequence (Q13324 1-411): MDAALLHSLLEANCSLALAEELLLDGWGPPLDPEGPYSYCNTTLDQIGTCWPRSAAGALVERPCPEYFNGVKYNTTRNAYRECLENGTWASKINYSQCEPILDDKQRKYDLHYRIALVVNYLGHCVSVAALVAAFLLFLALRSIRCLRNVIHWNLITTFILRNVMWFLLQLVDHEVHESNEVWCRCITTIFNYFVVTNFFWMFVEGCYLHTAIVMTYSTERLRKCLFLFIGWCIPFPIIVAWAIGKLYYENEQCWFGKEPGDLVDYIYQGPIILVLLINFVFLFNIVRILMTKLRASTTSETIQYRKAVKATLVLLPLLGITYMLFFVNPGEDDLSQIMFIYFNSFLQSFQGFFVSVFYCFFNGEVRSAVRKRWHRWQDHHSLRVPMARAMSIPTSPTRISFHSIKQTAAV
Method: Agonism of compounds for human corticotropin-releasing factor 2α (CRF2α receptor) was determined by a functional assay measuring cAMP modulation upon treatment of TeloHEAC cells stably expressing human CRF2α receptor.
Compounds were dissolved at 0.5 mM in 100% DMSO and serially diluted (1:2) in 100% DMSO for 16 dilutions. 20 nL of each dilution was then transferred to 384-well assay plate using an acoustic droplet ejection instrument. 5 μL of compound buffer (1×HBSS; 20 mM HEPES, 2 mM IBMX, 0% or 0.2% HSA) were then added to each well.
Prior to use, frozen cells were thawed quickly at 37° C. and washed (5 min at 900 rpm) with 20 mL cell buffer (1×HBSS; 20 mM HEPES). Cells were resuspended in cell buffer and adjusted to a cell density of 800.000 cells/ml.
5 μL cells (final dell density: 4000 cells/well) were dispensed in the compound-containing 384-well assay plate and incubated for 30 minutes 37° C.
The CAMP level in treated cells was determined using the Cisbio 62AM4PEC kit according to manufacturer's instruction. Finally, plates were incubated for 1 h at room temperature before measuring the fluorescence ratio between 665/620 nm.
The percent activity value (E %) was calculated by setting 100 nM of urocortin 2 (UCN2) as 100%. The in vitro potency of the compounds was quantified by determining the concentrations that caused 50% activation of maximal response (EC50) relative to urocortin 2.

[3] = 0% HSA, CRF1R CHO-K1 clone 2, read-out: EC50 [nM] 0% HSA
[4] = Table 20 side-to-side comparison, read-out: CRF1 EC50

## CC[C@H](C)[C@H](N)C(=O)N[C@H](C(=O)N[C@@H](CC(C)C)C(=O)N[C@@H](CO)C(=O)N[C@@H](CC(C)C)C(=O)N[C@@H](CC(=O)O)C(=O)N[C@@H](C(=O)N1CCC[C@H]1C(=O)N[C@H](C(=O)NCC(=O)N[C@@H](CC(C)C)C(=O)N[C@@H](CCCCNC(=O)CC[C@H](NC(=O)CCCCCCCCCCCCCCC(=O)O)C(=O)O)C(=O)N[C@@H](CCC(N)=O)C(=O)N[C@H](C(=O)N[C@@H](CC(C)C)C(=O)N[C@@H](CC(C)C)C(=O)N[C@@H](CCCCN)C(=O)N[C@@H](CCC(N)=O)C(=O)N[C@@H](CCC(=O)O)C(=O)N[C@@H](CCCNC(=N)N)C(=O)N[C@@H](CCC(N)=O)C(=O)N[C@@H](CCCCN)C(=O)N[C@@H](CCCCN)C(=O)NC(C)(C)C(=O)N[C@@H](CCCNC(=N)N)C(=O)N[C@@H](CCC(N)=O)C(=O)N[C@@H](CCC(N)=O)C(=O)N[C@@H](C)C(=O)N[C@@H](CCC(=O)O)C(=O)N[C@H](C(=O)N[C@@H](CC(N)=O)C(=O)N[C@@H](CCCCN)C(=O)N[C@@H](CCCNC(=N)N)C(=O)N[C@H](C(=O)N[C@@H](CC(C)C)C(=O)N[C@@H](CCC(=O)O)C(=O)N[C@@H](CCCNC(=N)N)C(=O)N[C@H](C(N)=O)C(C)C)[C@@H](C)CC)[C@@H](C)O)[C@@H](C)CC)[C@@H](C)CC)C(C)C)C(C)C [compound 195] (H-IVLSLD[dV]PIGLK([γGlu-C16 diacid])QILLKQERQKK[Aib]RQQAETNKRILERV-NH2)
[1]; [3]
  EC50: > 100 nM
[1]; CRF1R CHO-K1 clone 2
  Emax: 17.1%
[1]; [4]
  EC50: > 100 nM
[1]
  CRF1/CRF2 ratio: >500
[2]
  EC50: 0.34 nM

## CC[C@H](C)[C@H](N)C(=O)N[C@H](C(=O)N[C@@H](CC(C)C)C(=O)N[C@@H](CO)C(=O)N[C@@H](CC(C)C)C(=O)N[C@@H](CC(=O)O)C(=O)N[C@@H](C(=O)N1CCC[C@H]1C(=O)N[C@H](C(=O)NCC(=O)N[C@@H](CC(C)C)C(=O)N[C@@H](CCCCNC(=O)CC[C@H](NC(=O)CCCCCCCCCCCCCCC(=O)O)C(=O)O)C(=O)N[C@@H](CCC(N)=O)C(=O)N[C@H](C(=O)N[C@@H](CC(C)C)C(=O)N[C@@H](CC(C)C)C(=O)N[C@@H](CCCCN)C(=O)N[C@@H](CCC(N)=O)C(=O)N[C@@H](CCC(=O)O)C(=O)N[C@@H](CCCNC(=N)N)C(=O)N[C@@H](CCC(N)=O)C(=O)N[C@@H](CCCCN)C(=O)N[C@@H](CCCCN)C(=O)NC(C)(C)C(=O)N[C@@H](CCCNC(=N)N)C(=O)N[C@@H](CCC(=O)O)C(=O)N[C@@H](CCC(N)=O)C(=O)N[C@@H](C)C(=O)N[C@@H](CCC(=O)O)C(=O)N[C@@H](CCCCN)C(=O)N[C@@H](CC(N)=O)C(=O)N[C@@H](CCCCN)C(=O)N[C@@H](CCCNC(=N)N)C(=O)N[C@H](C(=O)N[C@@H](CC(C)C)C(=O)N[C@@H](CCC(=O)O)C(=O)N[C@@H](CCCNC(=N)N)C(=O)N[C@H](C(N)=O)C(C)C)[C@@H](C)CC)[C@@H](C)CC)[C@@H](C)CC)C(C)C)C(C)C [compound 196] (H-IVLSLD[dV]PIGLK([γGlu-C16 diacid])QILLKQERQKK[Aib]REQAEKNKRILERV-NH2; N-terminus assumed)
[1]; [3]
  EC50: > 100 nM
[1]; CRF1R CHO-K1 clone 2
  Emax: 16.9%
[1]; [4]
  EC50: > 100 nM
[1]
  CRF1/CRF2 ratio: >500
[2]
  EC50: 1.08 nM

## CC[C@H](C)[C@H](N)C(=O)N[C@H](C(=O)N[C@@H](CC(C)C)C(=O)N[C@@H](CO)C(=O)N[C@@H](CC(C)C)C(=O)N[C@@H](CC(=O)O)C(=O)N[C@@H](C(=O)N1CCC[C@H]1C(=O)N[C@H](C(=O)N[C@@H](CCCCN)C(=O)N[C@@H](CC(C)C)C(=O)N[C@@H](CCCCNC(=O)CC[C@H](NC(=O)CCCCCCCCCCCCCCC(=O)O)C(=O)O)C(=O)N[C@@H](CCC(N)=O)C(=O)N[C@H](C(=O)N[C@@H](CC(C)C)C(=O)N[C@@H](CC(C)C)C(=O)N[C@@H](CCCCN)C(=O)N[C@@H](CCC(N)=O)C(=O)N[C@@H](C)C(=O)N[C@@H](CCCNC(=N)N)C(=O)N[C@@H](CCC(N)=O)C(=O)N[C@@H](CCCCN)C(=O)NC(C)(C)C(=O)N[C@@H](CCC(N)=O)C(=O)N[C@@H](CCCNC(=N)N)C(=O)N[C@@H](C)C(=O)N[C@@H](CCC(N)=O)C(=O)N[C@@H](C)C(=O)N[C@@H](CCC(=O)O)C(=O)N[C@@H](CCCCN)C(=O)N[C@@H](CC(N)=O)C(=O)N[C@@H](CCCCN)C(=O)N[C@@H](CCCNC(=N)N)C(=O)N[C@H](C(=O)N[C@@H](CC(C)C)C(=O)N[C@@H](CCC(=O)O)C(=O)N[C@@H](CCCNC(=N)N)C(=O)N[C@H](C(N)=O)C(C)C)[C@@H](C)CC)[C@@H](C)CC)[C@@H](C)CC)C(C)C)C(C)C [compound 197] (H-IVLSLD[dV]PIKLK([γGlu-C16 diacid])QILLKQARQK[Aib]QRAQAEKNKRILERV-NH2; N-terminus assumed)
[1]; [3]
  EC50: > 100 nM
[1]; CRF1R CHO-K1 clone 2
  Emax: 24.4%
[1]; [4]
  EC50: > 100 nM
[1]
  CRF1/CRF2 ratio: >500
[2]
  EC50: 2.27 nM

## CC[C@H](C)[C@H](N)C(=O)N[C@H](C(=O)N[C@@H](CC(C)C)C(=O)N[C@@H](CO)C(=O)N[C@@H](CC(C)C)C(=O)N[C@@H](CC(=O)O)C(=O)N[C@@H](C(=O)N1CCC[C@H]1C(=O)N[C@H](C(=O)N[C@@H](CCCCN)C(=O)N[C@@H](CC(C)C)C(=O)N[C@@H](CCCCNC(=O)COCCOCCNC(=O)COCCOCCNC(=O)CC[C@H](NC(=O)CCCCCCCCCCCCCCC(=O)O)C(=O)O)C(=O)N[C@@H](CCC(N)=O)C(=O)N[C@H](C(=O)N[C@@H](CC(C)C)C(=O)N[C@@H](CC(C)C)C(=O)N[C@@H](CCCCN)C(=O)N[C@@H](CCC(N)=O)C(=O)N[C@@H](CCC(=O)O)C(=O)N[C@@H](CCCNC(=N)N)C(=O)N[C@@H](CCC(N)=O)C(=O)N[C@@H](CCCCN)C(=O)NC(C)(C)C(=O)N[C@@H](CCC(N)=O)C(=O)N[C@@H](CCCNC(=N)N)C(=O)N[C@@H](CCC(=O)O)C(=O)N[C@@H](CCC(N)=O)C(=O)N[C@@H](C)C(=O)N[C@@H](CCC(=O)O)C(=O)N[C@@H](CCCCN)C(=O)N[C@@H](CC(N)=O)C(=O)N[C@@H](CCCCN)C(=O)N[C@@H](CCC(N)=O)C(=O)N[C@H](C(=O)N[C@@H](CC(C)C)C(=O)N[C@@H](C)C(=O)N[C@@H](CCC(N)=O)C(=O)N[C@H](C(N)=O)C(C)C)[C@@H](C)CC)[C@@H](C)CC)[C@@H](C)CC)C(C)C)C(C)C [compound 198] (H-IVLSLD[dV]PIKLK([AEEA-AEEA-γGlu-C16 diacid])QILLKQERQK[Aib]QREQAEKNKQILAQV-NH2; N-terminus assumed)
[1]; [3]
  EC50: > 100 nM
[1]; CRF1R CHO-K1 clone 2
  Emax: 1.4%
[2]
  EC50: 0.49 nM

## CCCCCCCCCCCCCCCC(=O)N[C@@H](CCC(=O)N[C@@H](CCC(=O)NCCOCCOCC(=O)NCCOCCOCC(=O)NCCCC[C@H](NC(=O)[C@H](CC(C)C)NC(=O)CNC(=O)[C@@H](NC(=O)[C@@H]1CCCN1C(=O)[C@H](NC(=O)[C@H](CC(=O)O)NC(=O)[C@H](CC(C)C)NC(=O)[C@H](CO)NC(=O)[C@H](CC(C)C)NC(=O)[C@@H](NC(=O)[C@@H](N)[C@@H](C)CC)C(C)C)C(C)C)[C@@H](C)CC)C(=O)N[C@@H](CCC(N)=O)C(=O)N[C@H](C(=O)N[C@@H](CC(C)C)C(=O)N[C@@H](CC(C)C)C(=O)N[C@@H](CCCCN)C(=O)N[C@@H](CCC(N)=O)C(=O)N[C@@H](CCC(=O)O)C(=O)N[C@@H](CCCNC(=N)N)C(=O)N[C@@H](CCC(N)=O)C(=O)N[C@@H](CCCCN)C(=O)N[C@@H](CCCCN)C(=O)NC(C)(C)C(=O)N[C@@H](CCCNC(=N)N)C(=O)N[C@@H](CCC(=O)O)C(=O)N[C@@H](CCC(N)=O)C(=O)N[C@@H](C)C(=O)N[C@@H](CCC(=O)O)C(=O)N[C@H](C(=O)N[C@@H](CC(N)=O)C(=O)N[C@@H](CCCCN)C(=O)N[C@@H](CCC(N)=O)C(=O)N[C@H](C(=O)N[C@@H](CC(C)C)C(=O)N[C@@H](C)C(=O)N[C@@H](CCC(N)=O)C(=O)N[C@H](C(N)=O)C(C)C)[C@@H](C)CC)[C@@H](C)O)[C@@H](C)CC)C(=O)O)C(=O)O [compound 217] (H-IVLSLD[dV]PIGLK([AEEA-AEEA-γGlu-γGlu-Palmitoyl])QILLKQERQKK[Aib]REQAETNKQILAQV-NH2; N-terminus assumed)
[2]
  EC50: 0.16 nM
